In patent US10246455B2, “Histone deacetylase inhibitors” (Taipei Medical University, priority 2014, dated 2019):

How the values were obtained:
[1] = system: KB cell line (oral carcinoma); assay: IC50 in human cancer cell lines (inhibiting HDAC): KB; conditions: Homo sapiens, read-out: IC50, inhibiting HDAC in human cancer cell lines, KB, oral carcinoma
[2] = system: PC3 prostate cancer cells; assay: Three dimensional cell growth inhibitory assay (cellular spheres, MTT, microscopy): PC3; assay type: cell-based, human; conditions: Homo sapiens
Method: For the three dimensional assay, cells in the logarithmic phase were cultured in 50% Matrigel-containing complete medium in 96-well plates at 37° C. with 5% CO2 for five days incubation, and treated with appropriate concentrations of test compounds for three generative times. Images of spheroids were taken under a microscope, and spheroid cell survival was determined by MTT assays.
The cells (in the 2D culture) and the cellular spheres (in the 3D culture) were treated with test compounds for 72 hours, and then subjected to the MTT colorimetric assay. Each value represents the mean of three independent experiments. Cellular spheres formed in semi-solid and drug effect on cellular spheres were examined using phase-contrast light microscopy.
More specifically, cellular spheres formed in semi-solid and drug effect on cellular spheres were examined using phase-contrast light microscopy. 3D structures of cells were analyzed using 4× magnification, 10× magnification, and 20× magnification.

[3] = system: PC3 prostate cancer cells; assay: Two dimensional cell growth inhibitory assay (MTT): PC3; conditions: Homo sapiens
Method: For the two dimensional assay, cancel cells in the logarithmic phase were cultured in complete medium in 96-well plates at 37° C. with 5% CO2 for overnight incubation, and treated with various concentrations of test compounds for three generative times. Cells were then incubated with a serum free medium containing 3-(4,5-dimethylthiazol-2-yl)-2,5-diphenyltetrazolium bromide (MTT) at a final concentration of 0.5 mg/mM for four hours. MTT was converted to formazan by metabolically viable cells. Formazan was then solublized in 50% DMF solution containing 20% SDS at 37° C. overnight. Absorbance was measured at 570 nm using a spectramax M5 microplate reader (Molecular Devices, UK).

[4] = system: A549 (non-small-cell lung carcinoma); assay: IC50 in human cancer cell lines (inhibiting HDAC): A549; conditions: read-out: IC50, inhibiting HDAC in human cancer cell lines; A549, non-small-cell lung carcinoma
C6 glioma cell line = assay: Cell death in C6 glioma in vitro (LDH assay); assay type: cell-based; conditions: rat C6 glioma, 30 uM, after 3 days
Method: Cell death was analyzed by a lactate dehydrogenase (LDH) assay. The culture medium was centrifuged after the experiment and the activity of LDH released into culture media was detected with a LDH cytotoxicity detection kit (Roche). The percentage of cytotoxicity was determined by the equation: [(Experimental group−Control group)/(Triton-100-treated group (100% maximal death)−Control group)]×100%.

KB-VIN10 (KB resistant) = assay: IC50 against human cancer cell lines: KB-VIN10; conditions: read-out: IC50 ± SD against human cancer cell lines; KB-VIN10, KB resistant
[5] = Table 6, cell line not given, read-out: IC50 value 3D Culture
[6] = read-out: IC50 value 2D Culture

COc1ccc(S(=O)(=O)N2CCc3cc(/C=C/C(=O)Nc4ccccc4N)cnc32)cc1 [Compound 6a, (E)-N-(2-aminophenyl)-3-(1-(4-methoxyphenylsulfonyl)-2,3-dihydro-1H-pyrrolo[2,3-b]pyridin-5-yl)acrylamide] showed an IC50 [1] of less than 6 µM.

With O=C(/C=C/c1cccc(S(=O)(=O)n2ccc3cncnc32)c1)NO [Compound 4, (E)-3-(3-((7H-Pyrrolo[2,3-d]pyrimidin-7-yl)sulfonyl)phenyl)-N-hydroxyacrylamide] the IC50 [1] was less than 6 µM.

In the case of Nc1ccccc1NC(=O)c1ccc(CN2CCc3cccnc32)cc1 [Compound 21, N-(2-Aminophenyl)-4-((2,3-dihydro-1H-pyrrolo[2,3-b]pyridin-1-yl)methyl)benzamide], the melting point is reported as 105 to 107 °C and the IC50 [1] is reported as less than 6 µM.

In the case of O=C(/C=C/c1cccc(S(=O)(=O)N2CCc3cccnc32)c1)NO [Compound 8, (E)-3-(3-(2,3-Dihydro-1H-pyrrolo[2,3-b]pyridin-1-ylsulfonyl)phenyl)-N-hydroxyacrylamide], the melting point is reported as 228 to 230 °C and the IC50 [1] is reported as less than 6 µM.

In the case of O=C(/C=C/c1ccc(S(=O)(=O)n2ccc3ncccc32)cc1)NO [Compound 10, (E)-3-(4-(1H-Pyrrolo[3,2-b]pyridin-1-ylsulfonyl)phenyl)-N-hydroxyacrylamide], the melting point is reported as 188 to 190 °C and the IC50 [1] is reported as less than 6 µM.

COc1cccc2c1C(=O)c1c(O)c3c(c(O)c1C2=O)C[C@@](O)(C(=O)CO)C[C@@H]3O[C@H]1C[C@H](N)[C@H](O)[C@H](C)O1 [Adriamycin] showed an IC50 [2, 5] of 0.72 ± 0.04 µM, an IC50 ([2]; read-out: 3D Culture) of 0.72 ± 0.04 µM and an IC50 ([3]; read-out: 2D Culture) of 0.07 ± 0.03 µM. For the same compound, the IC50 [3, 6] was 0.07 ± 0.03 µM.

Nc1ccccc1NC(=O)c1ccc(Cn2ccc3cnccc32)cc1 [Compound 18, 4-((1H-Pyrrolo[3,2-c]pyridin-1-yl)methyl)-N-(2-aminophenyl)benzamide] showed a melting point of 165 to 167 °C and an IC50 [1] of less than 6 µM.

Compound O=C(NO)c1ccc(Cn2ccc3cccnc32)cc1 [Compound 23, N-Hydroxy-4-pyrrolo[2,3-b]pyridin-1-ylmethyl-benzamide] has an IC50 [1] of less than 6 µM.

O=C(/C=C/c1cccc(S(=O)(=O)n2ccc3ncccc32)c1)NO [Compound 5, (E)-3-(3-(1H-Pyrrolo[3,2-b]pyridin-1-ylsulfonyl)phenyl)-N-hydroxyacrylamide] showed a melting point of 148 to 150 °C.

O=C(/C=C/c1cccc(S(=O)(=O)n2ccc3ccccc32)c1)NO [Compound 1, (E)-3-(3-(1H-indol-1-ylsulfonyl)phenyl)-N-hydroxyacrylamide] gave a melting point of 188 to 191 °C and an IC50 [1] of less than 6 µM.

Work on CC[C@]1(O)C[C@H]2CN(CCc3c([nH]c4ccccc34)[C@@](C(=O)OC)(c3cc4c(cc3OC)N(C=O)[C@H]3[C@@](O)(C(=O)OC)[C@H](OC(C)=O)[C@]5(CC)C=CCN6CC[C@]43[C@@H]65)C2)C1 [Vincristine] yielded an IC50 [2, 5] of 0.0025 ± 0.00071 µM, an IC50 ([2]; read-out: 3D Culture) of 0.0025 ± 0.00071 µM and an IC50 ([3]; read-out: 2D Culture) of 0.00075 ± 0.00064 µM. The IC50 [3, 6] was 0.00075 ± 0.00064 µM.

Nc1ccccc1NC(=O)c1ccc(Cn2ccc3ccncc32)cc1 [Compound 19, 4-((1H-Pyrrolo[2,3-c]pyridin-1-yl)methyl)-N-(2-aminophenyl)-benzamide] showed a melting point of 154 to 155 °C and an IC50 [1] of less than 6 µM.

For O=C(CCCCCCC(=O)Nc1ccccc1)NO [SAHA, reference compound], the IC50 [4] was 1.54 ± 0.08 µM, the “induction of cell death (LDH)” value (C6 glioma cell line) was “about 70%” and the IC50 (KB-VIN10 (KB resistant)) was 1.85 ± 0.526 µM.

Nc1ccccc1NC(=O)c1ccc(CN2CCc3ccccc32)cc1 [Compound 15, N-(2-Aminophenyl)-4-(indolin-1-ylmethyl)benzamide] gave an IC50 [1] of less than 6 µM.

Compound Nc1ccccc1NC(=O)c1ccc(Cn2ccc3ccccc32)cc1 [Compound 14, 4-((1H-Indol-1-yl)methyl)-N-(2-aminophenyl)benzamide] has an IC50 [1] of less than 6 µM.

CC(=O)O[C@H]1C(=O)[C@@]2(C)[C@H]([C@H](OC(=O)c3ccccc3)[C@]3(O)C[C@H](OC(=O)[C@H](O)[C@@H](NC(=O)c4ccccc4)c4ccccc4)C(C)=C1C3(C)C)[C@]1(OC(C)=O)CO[C@@H]1C[C@@H]2O [Paclitaxel] showed an IC50 [2, 5] of 5.85 ± 0.07 µM, an IC50 ([2]; read-out: 3D Culture) of 5.85 µM and an IC50 ([3]; read-out: 2D Culture) of 0.0002 ± 0.0001 µM. For the same compound, the IC50 [3, 6] was 0.0002 ± 0.0001 µM.

Compound O=C(/C=C/c1ccc(S(=O)(=O)n2ccc3cccnc32)cc1)NO [Compound 12, (E)-3-(4-(1H-Pyrrolo[2,3-b]pyridin-1-ylsulfonyl)phenyl)-N-hydroxyacrylamide] has a melting point of 169 to 170 °C.

Work on O=C(/C=C/c1cccc(S(=O)(=O)n2ccc3ccncc32)c1)NO [Compound 6, (E)-3-(3-(1H-Pyrrolo[2,3-c]pyridin-1-ylsulfonyl)phenyl)-N-hydroxyacrylamide] yielded a melting point of 128 to 129 °C.

For O=C(/C=C/c1ccc(S(=O)(=O)n2ncc3ccccc32)cc1)NO [Compound 9, (E)-3-(4-(1H-Indazol-1-ylsulfonyl)phenyl)-N-hydroxyacrylamide], the IC50 [1] was less than 6 µM.

O=C(/C=C/c1cccc(S(=O)(=O)N2CCc3ccccc32)c1)NO [Compound 2, (E)-N-hydroxy-3-(3-(indolin-1-ylsulfonyl)phenyl)acrylamide] gave a melting point of 207 to 209 °C and an IC50 [1] of less than 6 µM.

Nc1ccccc1NC(=O)c1ccc(Cn2ccc3cccnc32)cc1 [Compound 20, 4-((1H-Pyrrolo[2,3-b]pyridin-1-yl)methyl)-N-(2-aminophenyl)benzamide] gave a melting point of 158 to 159 °C and an IC50 [1] of less than 6 µM.

O=C(/C=C/c1ccc(S(=O)(=O)N2CCc3cccnc32)cc1)NO [Compound 13, (E)-3-(4-(2,3-Dihydro-1H-pyrrolo[2,3-b]pyridin-1-ylsulfonyl)phenyl)-N-hydroxyacrylamide] gave a melting point of 220 to 223 °C and an IC50 [1] of less than 6 µM.

Work on COc1ccc(S(=O)(=O)N2CCc3cc(C(=O)NO)cnc32)cc1 [Compound 10a, N-hydroxy-1-(4-methoxyphenylsulfonyl)-2,3-dihydro-1H-pyrrolo[2,3-b]pyridine-5-carboxamide] yielded an IC50 [1] of less than 6 µM.

In the case of Nc1ccccc1NC(=O)c1ccc(Cn2ccc3ncccc32)cc1 [Compound 17, 4-((1H-Pyrrolo[3,2-b]pyridin-1-yl)methyl)-N-(2-aminophenyl)-benzamide], the melting point is reported as 116 to 118 °C and the IC50 [1] is reported as less than 6 µM.

Compound Nc1ccccc1NC(=O)c1ccc(Cn2ncc3ccccc32)cc1 [Compound 16, 4-((1H-Indazol-1-yl)methyl)-N-(2-aminophenyl)benzamide] has a melting point of 185 to 188 °C and an IC50 [1] of less than 6 µM.

In the case of O=C(/C=C/c1ccc(S(=O)(=O)n2ccc3ccncc32)cc1)NO [Compound 11, (E)-3-(4-(1H-Pyrrolo[2,3-c]pyridin-1-ylsulfonyl)phenyl)-N-hydroxyacrylamide], the melting point is reported as 167 to 169 °C and the IC50 [1] is reported as less than 6 µM.
